Test results: PMC8158687, “Xanthones Active against Multidrug Resistance and Virulence Mechanisms of Bacteria” (Antibiotics, 2021)

What was measured:
Cytotoxicity assay (MTT) = format: cell-based, mouse; details: mouse, NIH/3T3 mouse fibroblast cells, 24 h, MTT, read-out: Cytotoxicity IC50 (µM) ± SD
Method: (§1) In order to apply efflux pump inhibitors to treat patients, several issues should be addressed.
(§2) Mouse fibroblasts (NIH/3T3, ATCC CRL-1658TM) were cultivated in DMEM (Gibco 52100-039) and supplemented with 10% heat-inactivated fetal bovine serum (Biowest, VWR International Kft, Debrecen, Hungary), 2 mM of L-glutamine, 1 mM Na pyruvate, 100 U/L and 10 mg/L penicillin/streptomycin mixture (Sigma-Aldrich Chemie GmbH, Steinheim, Germany), respectively, and 0.1% nystatin (8.3 g/L in ethylene glycol). The adherent cells were detached using a combination of 0.25% Trypsin–Versene (EDTA) solution for 5 min at 37 °C. Before each cytotoxicity assay using this cell line, cells were seeded in untreated 96-well flat-bottom microtiter plates, following a 4-h incubation period in a humidified atmosphere (5% CO2, 95% air) at 37 °C [60].
(§3) The cytotoxicity of 4, 12, 16, 19, and 20 was assessed in NIH/3T3 cells. The compounds were added to the cells distributed into 96-well flat bottom microtiter plates at concentrations of […] and initially incubated for 24 h, after which a solution of MTT in PBS was added to each well and incubated for another 4 h. The concentrations used were the same as in the MIC assay. After this, 100 μL of SDS (10% in a 0.01 M HCl solution) were added to each well and incubated overnight at 37 °C. Doxorubicin was used as the positive control. Cell growth was determined in quadruplicate by measuring OD at λ = 540 nm (reference 630 nm) in a Multiscan EX ELISA reader (Thermo Labsystems, Cheshire, WA, USA). The percentage of inhibition of cell growth was determined according to the equation: (2) 100−(ODsample−ODmedium control/ODcell control−ODmedium control)×100

[1] = test system: NIH/3T3 mouse fibroblast cells; assay: Cytotoxicity assay (MTT); format: cell-based
Method: as §1, §2, §3

[2] = test system: EZF + CV026 (Sphingomonas paucimobilis Ezf 10-17 + Chromobacterium violaceum CV026); assay: Quorum sensing inhibition assay (parallel inoculation, pigment production); format: cell-based; details: read-out: Quorum Sensing Inhibition (mm) ± SD
Text: (§4) The sensor strain Chromobacterium violaceum CV026 and the acyl-homoserine lactones (AHLs) producer strain Sphingomonas paucimobilis Ezf 10-17 (EZF) were inoculated as parallel lines, and the AHL producers, Chromobacterium violaceum wild type 85 (wt85) and Serratia marcescens AS-1 were inoculated as a single line.
(§5) For the QS tests, all the bacteria used were Gram-negative. The bacteria used were Chromobacterium violaceum wild type 85 (wt85), characterized by the AHL signal molecule-mediated production of the purple violacein pigment, capable of endogenous QS-signal molecule production (N-hexanoyl-L-HSL), C. violaceum CV026 (CV026), a Tn5 transposase-mutant, AHL-signal molecule indicator strain (produces purple violacein pigment in the presence of AHL), which is incapable of endogenous QS-signal molecule-production, but useful in the detection of external stimuli, Sphingomonas paucimobilis Ezf 10-17 (EZF), AHL-producing-strain (used with C. violaceum CV026), and Serratia marcescens AS-1, characterized by the AHL signal molecule-mediated production of the orange–red pigment prodigiosin (2-methyl-3-pentyl-6-methoxyprodigiosin), capable of endogenous QS-signal molecule production (N-hexanoyl-L-HSL), were applied.
(§6) The QS inhibitory effect of the compounds was examined on the EZF and the sensor CV026 strains, on the wt85 strain, and on S. marcescens, for 4, 5, 11, 12, 16, 19, and 20. The method used was the parallel inoculation method, where pair combinations of the used sensor strain CV026 and the N-acyl-homoserine lactone (AHL)-producing strain EZF were inoculated directly onto the LB*-A agar surface in parallel, at an approximate distance of 5 mm from each other. S. marcescens AS-1 and wt85 were inoculated as a single line. Filter paper disks (7 mm in diameter) were placed on the center of the inoculated line(s) and impregnated with 8 µL of a solution of 10 mM of the compounds. […] The agar plates were incubated at room temperature (20 °C) for 24–48 h. The QS inhibition was accessed visually, through the inhibition of pigment production. The discolored, but intact, bacterial colonies were measured with a ruler.

S. aureus 272123 [3] = assay: Efflux pump inhibition assay (real-time ethidium bromide accumulation); format: cell-based, Staphylococcus aureus; details: compound 50 µM, EB 1 µg/mL, minute 60
Method: Compounds 1–20 were assessed for their capability of modulating ethidium bromide (EB) accumulation on two resistant strains. […] However, norA is a core gene of the S. aureus as a species, which means that the NorA pump occurs in all S. aureus strains.
(§7) Salmonella enterica serovar Typhimurium SE03, was used as a Gram-negative bacterium. This strain has a deletion of the acrA gene, which was predicted with the least affinity for the compounds. The aim of these studies was to perform a first screening of these compounds and their ability to modulate the efflux of EB. […] The relative fluorescence index (RFI) was calculated based on the means of relative fluorescence units, depicted in Table 2.
(§8) Compounds 1–20 were evaluated for their ability to inhibit efflux pumps in SE03 and S. aureus 272123 strains, through the real-time fluorimetry, monitoring the intracellular accumulation of EB, an efflux pump substrate. This was determined by the automated method using a CLARIOstar Plus plate reader (BMG Labtech, Ortenberg, Germany). Reserpine and CCCP were applied at 25 µM as positive controls, and the solvent DMSO was applied at 1% v/v. The bacterial strains were incubated in an appropriate culture media (TSB—S. aureus 272123; LB-B—SE03) at 37 °C until they reached an optical density (OD) between 0.4 and 0.6 at λ = 600 nm. The culture was centrifuged at 13,000× g for 3 min, and the pellet washed and resuspended with PBS. The suspension was centrifuged again in the same conditions and resuspended in PBS. The compounds were applied at 50 µM in a solution of a non-toxic concentration of EB (1 µg/mL) in PBS. Then, 50 µL of this solution were transferred into a 96-well black microtiter plate (Greiner Bio-One Hungary Kft, Mosonmagyaróvár, Fertősor, Hungary), and 50 µL of bacterial suspension (OD600 0.4–0.6) were added to each well. The plates were placed into the CLARIOstar plate reader, and the fluorescence was monitored at excitation and emission wavelengths of 530 nm and 600 nm every minute for one hour on a real-time basis. From the real-time data, the activity of the compounds, namely the RFI of the last time point (minute 60) of the EB accumulation assay, was calculated according to the following formula:(1) RFI=RFtreated−RFuntreated/RFuntreated where RFtreated is the relative fluorescence (RF) at the last time point of EB accumulation curve in the presence of the compound, and RFuntreated is the RF at the last time point of the EB accumulation curve of the untreated control, having only the solvent (DMSO) control. The accumulation curves were designed using Microsoft Excel®.

[4] = test system: Chromobacterium violaceum wild type 85 (wt85); assay: Quorum sensing inhibition assay (disk, pigment production); format: cell-based; details: read-out: Quorum Sensing Inhibition (mm) ± SD
Text: as §4, §5, §6

Serratia marcescens AS-1 = assay: as above; format: cell-based; details: AS1, read-out: Quorum Sensing Inhibition (mm) ± SD
Text: as §4, §5, §6

[5] = test system: extended-spectrum β-lactamase producing strain; set-up: method as in PMID 32455828; details: previous results; ref [14]; cited from earlier work
[6] = test system: SE03 (acrA gene-inactivated Salmonella enterica serovar Typhimurium SL1344); assay: Efflux pump inhibition assay (real-time ethidium bromide accumulation); format: cell-based; details: compound 50 µM, EB 1 µg/mL, minute 60
Method: as §7, §8

S. aureus ATCC 29213 = assay: Inhibition of biofilm formation (crystal violet); format: cell-based, Staphylococcus aureus; details: half the MIC, or 100 µM if MIC >100 µM, 48 h, 30 °C
S. aureus 272123 [7] = assay: Inhibition of biofilm formation (crystal violet); format: cell-based, Staphylococcus aureus; details: half the MIC, or 100 µM if MIC >100 µM, 48 h, 30 °C
Method: The biofilm inhibition, presented in percentages (%), was calculated based on the mean of absorbance units.
The bacterial strains used were the Gram-positive S. aureus ATCC 25923 and S. aureus 272123. The detection of the biofilm formation was possible with the use of the dye crystal violet (CV; 0.1% v/v). The initial inoculum was incubated in TSB overnight, and then diluted to an OD600 of 0.1. Then, the bacterial suspension was added to 96-well microtiter plates and the compounds were added at half the MIC. […] The final volume in each well was 200 µL. […] The plates were incubated at 30 °C for 48 h, with gentle stirring (100 rpm). After this incubation period, the TSB medium was discarded, and the plates were washed with tap water to remove unattached cells. Afterwards, 200 µL of a 0.1% v/v CV solution were added to the wells and incubated for 15 min at room temperature. Then, the CV solution was removed from the wells, and the plates were washed again with tap water, and 200 µL of a 70% ethanolic solution were added to the wells. The biofilm formation was determined by measuring the OD600 using a Multiscan EX ELISA plate reader (Thermo Labsystems, Cheshire, WA, USA). The anti-biofilm effect of the compounds was expressed as the percentage (%) of decrease in biofilm formation.

Row | Structure (SMILES) | IC50 at 24 h (Cytotoxicity assay (MTT)) [µM] | Cytotoxicity (in words) [1] | zone of inhibition at 10000 µM [2] [mm] | RFI ± SD (relative fluorescence index) (S. aureus 272123 [3]) | zone of inhibition at 10000 µM [4] [mm] | zone of inhibition at 10000 µM (Serratia marcescens AS-1) [mm] | activity against extended-spectrum β-lactamase producing strain (in words) [5] | RFI ± SD (relative fluorescence index) [6] | Inhibition of Biofilm Formation (%) ± SD (S. aureus ATCC 29213) | Inhibition of Biofilm Formation (%) ± SD (S. aureus 272123 [7])
1 | O=c1c2cc(O)ccc2oc2cccc(O)c12 [Compound 4] | > 100 | no cytotoxicity was observed | 0 | 0.13 ± 0.08 ^2 | 0 | 0 | not active | 2.90 ± 0.71 ^7 | 0 ^1% | 
2 | COc1ccc2c(=O)c3c(C=O)cc(OC)c(OC)c3oc2c1 [Compound 16] | 26.9 ± 5.87 | moderate cytotoxicity | 42 ± 0.8 | 5.49 ± 8.04 ^5 | 0 | 0 |  | 0.13 ± 0.15 ^10 | 0 ^2% | 58.98 ± 12.00 ^4%
3 | COc1cc(CBr)c2c(=O)c3ccccc3oc2c1OC [Compound 12] | 54.6 ± 5.3 | moderate cytotoxicity | 30 ± 0.5 | 0.11 ± 0.30 ^4 | 0 | 0 |  | 1.75 ± 1.57 ^9 | 0 ^1% | 6.27 ± 1.41 ^3%
